The nature of the test: Inhibition of influenza A virus (A/Perth/16/2009(H3N2)) neuraminidase using MUNANA substrate pre-incubated for 30 mins before substrate addition by fluorometric assay.
The term IC50 denotes the concentration that gives 50% inhibition. A higher IC50 goes with a need for much substance. Compound `O=c1cc(-c2ccc(O)c(O)c2)oc2cc(O[C@@H]3O[C@H](CO)[C@@H](O)[C@H](O)[C@H]3O)cc(O)c12` registered an IC50 of 51.2 µM. Compound `O=c1c(O)c(-c2ccc(O)cc2)oc2cc(O)cc(O)c12` had a concentration for half-maximal inhibition (IC50) of 42.2 µM. With `O=c1cc(O)cc2oc(-c3ccc(O)c(O)c3)c(O[C@@H]3O[C@H](CO)[C@H](O)[C@H](O)[C@H]3O)c(O)c1-2` [2-(3,4-Dihydroxy-phenyl)-5,7-dihydroxy-3-((2S,4R,5R)-3,4,5-trihydroxy-6-hydroxymethyl-tetrahydro-pyran-2-yloxy)-chromen-4-one], the IC50 turned out to be 85.5 µM. For `C[C@@H]1O[C@@H](Oc2c(-c3ccc(O)c(O)c3)oc3cc(O)cc(O)c3c2=O)[C@H](O)[C@H](O)[C@H]1O` [CHEBI:17558], the IC50 was 121 µM. For `O=c1cc(O)cc2oc(-c3ccc(O)c(O)c3)c(O[C@@H]3O[C@H](CO)[C@@H](O)[C@H](O)[C@H]3O)c(O)c1-2` [Quercetin 3-O-beta-D-glucoside], the IC50 was determined as 477 µM.

The values above are taken from BindingDB's records for doi:10.1016/j.bmcl.2014.07.010 (Freie Universitaet Berlin, 2014).
